In US8623110B2, “Protein and isolated or purified amino acid product containing compositions and uses thereof” (Archer Daniels Midland Company, priority 2007, dated 2014):

Columns and labels:
Assay type in all cases: in vivo
[1] = system: 'Floratam' St. Augustinegrass; assay: Fertilizer efficacy on St. Augustinegrass (quality, color, clipping weight); conditions: St. Augustinegrass sites 1 and 2; LSG at high rate (Tables 4-7)
Protocol: (§1) In another embodiment, the fertilizers of the various embodiments described herein were compared to industry standards for efficacy and phytotoxicity on St. Augustinegrass and bermudagrass. In another embodiment the experimental fertilizers were evaluated for their efficacy as a pre-emergent herbicide compared to an industry standard.
Efficacy of the fertilizers on the St. Augustinegrass Site was evaluated by applying treatments 1-8 to 4 replications of ‘Floratam’ St. Augustinegrass. Plot size was 1 m×2 m set up as a randomized complete block. Initially Nature Safe was applied as a granular, while ammonium sulfate and remaining products were applied as split liquid treatments sprayed out using a CO2 boom sprayer set to deliver a volume of 1 gallon/1000 ft^2. After six weeks all 10 treatments were applied to the 4 replications of ‘Floratam’. Products 3-10 were again applied as split liquid treatments using a CO2 boom sprayer. Split treatments were re-applied approximately 2 weeks later. Plots were mowed at 3.0 inches before fertilizer application. Irrigation (0.15 inch) was applied following each application. Clipping samples were taken approximately monthly for dry weight (grams) determination. […] All data was subject to statistical analysis and significant means were determined.

bermudagrass = assay: Fertilizer efficacy on bermudagrass (quality, color, clipping weight); conditions: LSG at high rate (Tables 8 and 9)
Protocol: as §1
Efficacy of the fertilizers on the Bermudagrass Site was evaluated by applying, treatments 1-8 to 4 replications of 1 m×2 m bermudagrass plots set up as a randomized complete block. Nature Safe was applied as a granular, while ammonium sulfate and remaining products were applied as split liquid treatments sprayed out using a CO2 boom sprayer set to deliver a volume of 1 gallon/1000 ft^2. Turfgrass ratings were taken to ensure turf quality/color uniformity.
After 6 weeks all 10 treatments were applied to 4 replications of bermudagrass plots. Products 3-10 were again applied as split liquid treatments sprayed out using a CO2 boom sprayer. Split treatments were re-applied approximately 2 weeks later. Plots were mowed at 0.5 inches before fertilizer application. Irrigation (0.15 inch) was applied following application. Clipping samples were taken approximately monthly for dry weight (grams) determination. […] All data was subject to statistical analysis and significant means were determined.

weeds = assay: Pre-emergent herbicide efficacy, percent weed cover on bare soil; conditions: compared to the untreated control (Table 13)
Protocol: Herbicide efficacy of the fertilizers was evaluated with Granular Lysine (LSG), Liquid Lysine (LSL), and Ronstar G by applying them to 3 replications of 1 m×1 m plots which also included an untreated control. Plots were located in an area of known weed infestation problems. Plots were prepared prior to treatment application by rototilling and applying 3 glyphosate applications to clear up pre-existing weeds and the test was initiated with 0 percent weed in all plots. On approximately monthly intervals percent weed cover ratings were taken. All data was subject to statistical analysis and significant means were determined.

Cl.NCCCC[C@H](N)C(=O)O [LSG, L-lysine monohydrochloride]
turfgrass quality and color (scale of 1-10) [1]: highest numerical average on many rating dates
turfgrass quality and color (scale of 1-10) (bermudagrass): best numerical turfgrass scores on most dates
weed ratings (percent weed cover) (weeds): not significantly different
